Laboratory results from PubChem BioAssay (NCI).
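Interpolation was linear, between the two tested concentrations surrounding the appropriate level; five concentrations were tested over 48 hours in 96-well plates. The concentration for 50% growth inhibition is given as GI50. The concentration for full growth arrest is given as TGI.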

What was measured:
Experiment in all cases: inhibition of tumour cell growth, NCI panel, 48 h
[1] = tested on: RXF 393 renal
[2] = tested on: MDA-MB-231 breast
[3] = tested on: MCF7 breast
[4] = tested on: SF-295 CNS
[5] = tested on: COLO 205 colon
[6] = tested on: OVCAR-4 ovarian
[7] = tested on: IGROV1 ovarian
[8] = tested on: CCRF-CEM leukemia
[9] = tested on: SK-MEL-28 melanoma
[10] = tested on: UO-31 renal

Row | Structure (SMILES) | TGI [1] [µM] | TGI [2] [µM] | TGI [3] [µM] | TGI [4] [µM] | TGI [5] [µM] | TGI [6] [µM] | TGI [7] [µM] | TGI [8] [µM] | TGI [9] [µM] | TGI [10] [µM] | GI50 [1] [µM] | GI50 [2] [µM] | GI50 [3] [µM] | GI50 [4] [µM] | GI50 [5] [µM] | GI50 [6] [µM] | GI50 [7] [µM] | GI50 [8] [µM] | GI50 [9] [µM] | GI50 [10] [µM]
1 | N#Cc1ccc2[nH]c3c(c2c1)CC(=O)Nc1ccccc1-3 | > 100 | > 100 | > 100 | > 100 | > 100 | > 100 | > 100 | > 100 | > 100 | > 100 |  |  |  |  |  |  |  |  |  | 
2 | CN1C=COC1N=C1CCCCC1 (stereo not given) | > 100 | > 100 | > 100 | > 100 | > 100 | > 100 | > 100 | > 100 | > 100 | > 100 |  |  |  |  |  |  |  |  |  | 
3 | COc1ccc(C2C(C#N)=C(S)N(C3OC(CO)C(O)C(O)C3O)C(C)=C2C(C)=O)cc1 (stereo not given) | > 100 | > 100 | > 100 | > 100 | > 100 | > 100 | > 100 | > 100 | > 100 | > 100 |  |  |  |  |  |  |  |  |  | 
4 | Cc1ccc2c(=O)cc(Cc3csc4ccccc34)[nH]c2n1 | > 100 | > 100 | > 100 | 93.8 | > 100 | 91.4 | 30.9 | > 100 | > 100 | 80.1 |  |  |  |  |  |  |  |  |  | 
5 | O=C(CSCC(=O)N/N=C\c1ccccc1F)N/N=C\c1ccccc1F | > 100 | > 100 | > 100 | > 100 | > 100 | > 100 | > 100 | > 100 | > 100 | > 100 |  |  |  |  |  |  |  |  |  | 
6 | O=c1c2cc(I)ccc2nc(SCc2nnco2)n1Cc1ccccc1 | > 100 | > 100 | > 100 | > 100 | > 100 | > 100 | > 100 | 62.9 | > 100 | 2.87 |  |  |  |  |  |  |  |  |  | 
7 | COc1cc(/C(=C2/O[C@@H]([C@H]3COC(C)(C)O3)[C@H]3OC(C)(C)O[C@@H]23)c2ccc3c(c2)OCO3)cc(OC)c1OC | > 25 | > 25 | > 25 | > 25 | > 25 | > 25 | > 25 | > 25 | > 25 | > 25 | 6.05 | > 25 | > 25 | > 25 | > 25 | 8.81 | > 25 | > 25 | 16.1 | > 25
8 | COc1cc(O)cc(O)c1C(=O)CC(Cl)(Cl)Cl | > 100 | > 100 | > 100 | > 100 | > 100 | > 100 | > 100 | > 100 | > 100 | > 100 |  |  |  |  |  |  |  |  |  | 
9 | OC1(c2ccc(Cl)cc2)c2c(c3ccccc3c3ccccc23)C2=NCCN21 (stereo not given) | 24.7 | 26.8 | 41.7 | 28.1 | > 100 | 11 | 18.2 | > 100 | 34.9 | 24.6 |  |  |  |  |  |  |  |  |  | 
10 | C[N+]1([O-])[C@H]2CC(OC(=O)[C@H](CO)c3ccccc3)C[C@H]1[C@H]1O[C@H]12 (stereo not given in full) | > 100 | > 100 | > 100 | > 100 | > 100 | > 100 | > 100 | > 100 | > 100 | > 100 |  |  |  |  |  |  |  |  |  | 
11 | COc1ccc(N2N=NN(C(C)C)/C2=C(/Cl)c2nnnn2-c2ccc(OC)cc2)cc1 | 27.4 | 22.6 | 22.6 | 30.4 | 13.1 | 11.6 | 28.7 | 4.24 | 29.7 | 10.8 |  |  |  |  |  |  |  |  |  | 
12 | CCN(CC)c1ccc2cc(C(N)=O)c(=Nc3ccc(F)cc3)oc2c1 | 92 | 88.5 | > 100 | > 100 | > 100 | > 100 | > 100 | > 100 | > 100 | > 100 |  |  |  |  |  |  |  |  |  | 
13 | CS(=O)(=O)OCC1CCCCCCCCCCC12SCCCS2 (stereo not given) | > 100 | > 100 | > 100 | > 100 | > 100 | > 100 | > 100 | > 100 | > 100 | > 100 |  |  |  |  |  |  |  |  |  | 
14 | CCOC1NC(/N=C/c2ccc(OC)cc2)=C(C#N)C1C#N (stereo not given) | > 100 | > 100 | > 100 | > 100 | > 100 | > 100 | > 100 | 82.2 | > 100 | > 100 |  |  |  |  |  |  |  |  |  | 
15 | Cc1cn([C@@H]2C[C@H](CO)[C@@H]2O)c(=O)[nH]c1=O | > 100 | > 100 | > 100 | > 100 | > 100 | > 100 | > 100 | > 100 | > 100 | > 100 |  |  |  |  |  |  |  |  |  | 
16 | OC(C1CCCCCCCCCC1)C(O)C1CCCCCCCCCC1 (stereo not given) | > 100 | > 100 | > 100 | > 100 | > 100 | > 100 | > 100 | > 100 | > 100 | > 100 |  |  |  |  |  |  |  |  |  | 
